Source: patent publication US20130089570A1, “ORAL VACCINE CO[…] ANTIGEN AND A TOLL-LIKE RECEPTOR AGONIST” (Glaxo Smith Kline Biologicals S.A., priority 2010, published 2013)
Like-named read-outs stand apart in the source and are kept apart here. Marks after values point to notes of the source that are not given here.

Tested on: A/Solomon Island virus (A/SI/3/2006)
Type: in vivo, BALB/c mice
Conditions: for IgA concentration in mucosal samples GeoMean, BAL / IgA concentration in mucosal samples GeoMean, Feces / IgA concentration in mucosal samples GeoMean, Nasal Wash / IgA concentration in mucosal samples GeoMean, Saliva / IgA concentration in mucosal samples GeoMean, Vaginal Wash: days 0 and 14, two weeks after second immunization
[1] = Table 2 study, A/SI/3/2006 7.5 μg, adjuvant 1 μg
[2] = Table 1 study, dose of Ag 14 μg

Row | Compound | IgA concentration in mucosal samples GeoMean, BAL [1] | IgA concentration in mucosal samples GeoMean, Feces [1] | IgA concentration in mucosal samples GeoMean, Nasal Wash [1] | IgA concentration in mucosal samples GeoMean, Saliva [1] | IgA concentration in mucosal samples GeoMean, Vaginal Wash [1] | IgA BAL levels compared to IM immunization (Table 2 study, Kruskal Wallis and Dunn's multiple comparison test) | IgA response in vaginal wash by adjuvantation (Table 2 study, vaginal wash) | IgA concentration in mucosal samples GeoMean, BAL (Table 1 study, dose of Ag 7 μg) | IgA concentration in mucosal samples GeoMean, Feces (Table 1 study, dose of Ag 7 μg) | IgA concentration in mucosal samples GeoMean, Nasal Wash (Table 1 study, dose of Ag 7 μg) | IgA concentration in mucosal samples GeoMean, Saliva (Table 1 study, dose of Ag 7 μg) | IgA concentration in mucosal samples GeoMean, Vaginal Wash (Table 1 study, dose of Ag 7 μg) | IgA concentration in mucosal samples GeoMean, BAL [2] | IgA concentration in mucosal samples GeoMean, Feces [2] | IgA concentration in mucosal samples GeoMean, Nasal Wash [2] | IgA concentration in mucosal samples GeoMean, Saliva [2] | IgA concentration in mucosal samples GeoMean, Vaginal Wash [2]
1 | Flagellin | 4.04 ng/mL | 14.56 ng/mL | 4.00 ng/mL | 2.69 ng/mL | 9.93** ng/mL | significantly higher | highly increased the IgA response |  |  |  |  |  |  |  |  |  | 
2 | CCCCCCCCCCC[C@H](CC(=O)N[C@H]1[C@H](OC[C@H](NC(=O)C[C@@H](CCCCCCCCCCC)OC(=O)CCCCCCCCC)C(=O)O)O[C@H](CO)[C@@H](OP(=O)(O)O)[C@@H]1OC(=O)C[C@@H](CCCCCCCCCCC)OC(=O)CCCCCCCCC)OC(=O)CCCCCCCCC [CRX527] | 3.47 ng/mL | 8.68 ng/mL | 3.50 ng/mL | 3.22 ng/mL | 7.05 ng/mL |  |  | 7.43*** ng/mL | 48.40*** ng/mL | 11.88* ng/mL | 7.53 ng/mL | 81.01*** ng/mL | 3.67 ng/mL | 75.71*** ng/mL | 8.22 ng/mL | 5.13 ng/mL | 120.80*** ng/mL
